Source: PubChem BioAssay AID686920 (Broad Institute, 2013)

System: A673 NR0B1-luciferase reporter, viability-normalised luminescence
Assay: suppressors of NR0B1-promoter luciferase reporter, dose response, EWS/Fli inhibitor project, luciferase luminescence, A673 cells, cherry-pick (AID 686920)

Point of comparison: `C[C@@H]1CN([C@@H](C)CO)C(=O)Cc2cc(NC(=O)Nc3ccc(C(F)(F)F)cc3)ccc2O[C@@H]1CN(C)Cc1ccc(C(=O)Nc2ccccc2N)cc1`, AC35 7.91 µM. Against it:
- C/C(=N\Nc1cccc2cccnc12)c1ccccn1 — 2.4-fold higher, 19 µM
- O=C(O)c1ccc(N/N=C/c2ccc(OC(=O)c3cccc(Cl)c3)cc2)cc1 — within 1.5-fold, 7.06 µM
- COc1ccc(C=C2CCc3ccccc3C2=O)cc1 — within 1.5-fold, 10.4 µM
- O=C(Nc1ccc(Br)cc1)c1ccc(F)c(S(=O)(=O)N2CCN(c3ccccn3)CC2)c1 — within 1.5-fold, 7.79 µM
- COc1cc(-c2coc3c(C(=O)NCc4ccc(C(F)(F)F)cc4)cccc23)ccc1O — 3.6-fold lower, 2.21 µM
- C/C(=C\c1ccccc1)C(=O)N1CCC=CC1=O — within 1.5-fold, 10.3 µM
- C[C@H](CO)N1C[C@H](C)[C@H](CN(C)Cc2ccc(Oc3ccccc3)cc2)Oc2ccc(NC(=O)Cn3cnnn3)cc2CC1=O — 4.2-fold higher, 33.2 µM
- COc1ccc(-c2cnc3c(NC=O)cc(-c4ccccc4OC)cn23)cc1OC — 120-fold lower, 0.065 µM
- COc1cccc(CN2CCC2(C)C(=O)Nc2cccc3cccnc23)c1F (stereo unspecified) — 1.9-fold higher, 14.7 µM
- C[C@H]1CN([C@@H](C)CO)C(=O)Cc2cc(NC(=O)CCCCCC(=O)Nc3ccccc3N)ccc2O[C@H]1CN(C)Cc1ccc(C(F)(F)F)cc1 — within 1.5-fold, 6.15 µM
- COC1C(O)C(C)OC(OC2C(Oc3cccc4c(O)c5c(=O)oc6ccc(C)c7c(=O)oc(c34)c5c67)OC(C)C(O)C2O)C1O (stereo unspecified) — 1.8-fold lower, 4.49 µM
- COc1ccc(C2=NNC(=Nc3cc(S(=O)(=O)N(C)C)ccc3C)SC2)c(OC)c1 — within 1.5-fold, 9.53 µM
- COC(=O)C[C@@H]1CC[C@@H]2[C@H](COc3ccc(NC(=O)c4ccc(C(F)(F)F)cc4)cc3C(=O)N2C)O1 — 1.5-fold higher, 12.1 µM
- O=C1c2ccccc2C(=O)c2cc(N3CCCCC3)ccc21 — 3-fold lower, 2.65 µM
- CC(=O)c1ccc(N=Nc2ccc(C)cc2)cc1 — within 1.5-fold, 8.92 µM
- Cc1cc(-c2nc3ccccc3s2)ccc1N — within 1.5-fold, 7.98 µM
- O=C(O)c1ccc(N/N=C/c2ccc3c(c2)OCO3)cc1 — 12-fold lower, 0.644 µM
- COc1cc(C(=O)N2CCC(N3CCN(C)CC3)CC2)ccc1Nc1ncc2c(n1)N(C)c1ccccc1C(=O)N2C — 1.7-fold lower, 4.75 µM
- Cc1ccccc1S(=O)(=O)N1CC[C@@H]2[C@@H](CO)Nc3ccc(-c4ccc(C#N)cc4)cc3[C@@H]21 — within 1.5-fold, 5.42 µM
- C[C@@H]1CN([C@H](C)CO)C(=O)Cc2cc(NC(=O)CCCCCC(=O)Nc3ccccc3N)ccc2O[C@@H]1CN(C)CC1CCCCC1 — within 1.5-fold, 7.74 µM
- O=C(Nc1ccc(NC(=O)c2cc3ccccc3o2)cc1)c1ccc2c(c1)OCCO2 — 1.7-fold higher, 13.2 µM
- C[C@H]1CN([C@@H](C)CO)C(=O)c2cc(NC(=O)C3CCCCC3)ccc2O[C@H]1CN(C)Cc1ccc(C(=O)Nc2ccccc2N)cc1 — 1.6-fold lower, 4.8 µM
- CC(C)(C)C(=O)Nc1ccc(N=Nc2ccccc2)cc1 — within 1.5-fold, 10.7 µM
- C[C@@H]1CN([C@H](C)CO)C(=O)c2cc(NS(=O)(=O)c3ccc(Cl)cc3)ccc2O[C@@H]1CN(C)Cc1ccc(Cl)c(Cl)c1 — 3.7-fold higher, 29.1 µM
- CCc1nc(N)nc(N)c1-c1ccc(Cl)cc1 — 1.5-fold lower, 5.12 µM
- BrC(=C\c1ccccc1)/C=N/n1cnnc1 — within 1.5-fold, 7.17 µM
- CCc1ccc(N2C=C(C(=O)OC)C(c3ccc(OC)cc3)C(C#N)=C2N)cc1 (stereo unspecified) — within 1.5-fold, 5.38 µM
- C[C@H](CO)N1C[C@H](C)[C@H](CN(C)CC2CCCCC2)Oc2ccc(NC(=O)CCCCCC(=O)Nc3ccccc3N)cc2CC1=O — 1.6-fold lower, 4.96 µM
- CN=c1scc(-c2ccccc2F)n1/N=C/c1ccc[nH]1 — 41-fold lower, 0.194 µM
- CN(C)c1ncnc2c1ccn2C1OC(CO)C(O)C1O (stereo unspecified) — 2.3-fold lower, 3.44 µM
- Cc1cc(C(=O)CN2C(=O)c3ccccc3S2(=O)=O)c(C)n1C(C)C — 2.6-fold lower, 3.04 µM
- O=C(O)c1ccc(N/N=C/c2cc(Br)cs2)cc1 — within 1.5-fold, 7.22 µM
- CCOC(=O)C1CCCCN1C(=O)CCc1c(C)nc2cc(-c3ccccc3)nn2c1C (stereo unspecified) — 6.8-fold lower, 1.16 µM
- Cc1cc(C)cc(C(=O)NC(=S)Nc2ccc(Cc3ccncc3)cc2)c1 — within 1.5-fold, 7.99 µM
- NC1=CC(=O)C(=O)c2cccnc21 — 1.8-fold higher, 14 µM
- O=C(C[C@@H]1C[C@H]2c3cc(NS(=O)(=O)c4ccc(F)cc4)ccc3O[C@H]2[C@H](CO)O1)NCc1ccc(-c2ccccc2)cc1 — 3.9-fold lower, 2.03 µM
- CCN1C/C(=C/c2ccc(N3CCOCC3)cc2)C(=O)/C(=C/c2ccc(N3CCOCC3)cc2)C1 — within 1.5-fold, 5.5 µM
- COc1cc(/C=C/C(=O)/C=C(O)/C=C/c2ccc(O)c(OC)c2)ccc1O — within 1.5-fold, 5.92 µM
- Cc1cc(C)c2sc(NNC(=O)c3ccc(S(=O)(=O)N4CCc5ccccc5C4)cc3)nc2c1 — 1.5-fold lower, 5.12 µM
- Cc1cc2c(C(C)C)c(O)c(O)c(C=O)c2c(O)c1-c1c(C)cc2c(C(C)C)c(O)c(O)c(C=O)c2c1O — within 1.5-fold, 7.16 µM
- C/C(=N\NC(=O)c1n[nH]c2c1CCC2)c1cccs1 — 4.4-fold lower, 1.78 µM
- COc1ccc(/C=C/C(=O)c2ccc(C(=O)/C=C/c3ccc(OC)c(OC)c3)cc2)cc1OC — within 1.5-fold, 6.78 µM
- CC[C@@H]1C[C@H]2CC[C@H](O2)[C@H](C)C(=O)O[C@@H](C)C[C@@H]2CC[C@@H](O2)[C@@H](C)C(=O)O[C@H](C)C[C@H]2CC[C@H](O2)[C@H](C)C(=O)O[C@@H](C)C[C@@H]2CC[C@@H](O2)[C@@H](C)C(=O)O1 — 80-fold lower, 0.0992 µM
- O=C(Nc1ccc2c(c1)OCO2)N1C[C@@H]2N[C@H](C1)C2c1ccc(C=Cc2ccccc2)cc1 (stereo partly specified) — 2.4-fold higher, 19 µM
- COc1ccc(C(CCNCc2ccc(OC(C)C)cc2)C(C)C)cc1 (stereo unspecified) — 1.9-fold higher, 15.2 µM
